Data published in PubChem BioAssay (NCI).
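Test compounds were applied to cells in 96-well plates for 48 hours at 5 doses. GI50 is the concentration that inhibits growth by half. TGI: total growth inhibition.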

Assays:
Test in all cases: DTP human tumour cell line panel, 48 h
[1] = tested on: RXF 393 renal
[2] = tested on: SNB-19 CNS
[3] = tested on: COLO 205 colon
[4] = tested on: SF-539 CNS
[5] = tested on: OVCAR-3 ovarian
[6] = tested on: HOP-62 NSCLC
[7] = tested on: EKVX NSCLC
[8] = tested on: UO-31 renal
[9] = tested on: K-562 leukemia
[10] = tested on: MCF7 breast
[11] = tested on: NCI-H460 lung
[12] = tested on: 786-0 renal
[13] = tested on: MALME-3M melanoma
[14] = tested on: LOX IMVI melanoma
[15] = tested on: OVCAR-4 ovarian
[16] = tested on: CAKI-1 renal
[17] = tested on: UACC-257 melanoma
[18] = tested on: M14 melanoma
[19] = tested on: T-47D breast
[20] = tested on: HCC-2998 colon
[21] = tested on: SN12C renal
[22] = tested on: DU-145 prostate
[23] = tested on: SR leukemia
[24] = tested on: HCT-15 colon
[25] = tested on: OVCAR-8 ovarian
[26] = tested on: SW-620 colon
[27] = tested on: HT29 colon
[28] = tested on: HL-60(TB) leukemia
[29] = tested on: TK-10 renal
[30] = tested on: NCI/ADR-RES ovarian
[31] = tested on: A549 NSCLC
[32] = tested on: SF-268 CNS
[33] = tested on: HCT-116 colon
[34] = tested on: NCI-H226 lung
[35] = tested on: UACC-62 melanoma
[36] = tested on: MDA-MB-231 breast
[37] = tested on: IGROV1 ovarian
[38] = tested on: HOP-92 NSCLC
[39] = tested on: PC-3 prostate
[40] = tested on: A498 renal
[41] = tested on: SK-OV-3 ovarian
[42] = tested on: ACHN renal
[43] = tested on: OVCAR-5 ovarian
[44] = tested on: MOLT-4 leukemia
[45] = tested on: SK-MEL-28 melanoma
[46] = tested on: NCI-H23 lung
[47] = tested on: SNB-75 CNS
[48] = tested on: SK-MEL-5 melanoma
[49] = tested on: SF-295 CNS
[50] = tested on: CCRF-CEM leukemia
[51] = tested on: MDA-MB-435
[52] = tested on: NCI-H522 lung
[53] = tested on: U251 CNS
[54] = tested on: KM12 colon
[55] = tested on: RPMI-8226 leukemia
[56] = tested on: HS 578T breast

c1ccc(CN=C(NCc2ccccc2)NCc2ccccc2)cc1
GI50 [1]: 14.3 µM
TGI [1]: 28.2 µM
GI50 [2]: 11 µM
TGI [2]: 25 µM
GI50 [3]: 1.98 µM
TGI [3]: 4.03 µM
GI50 [4]: 11.9 µM
TGI [4]: 27.5 µM
GI50 [5]: 3.11 µM
TGI [5]: 14.9 µM
GI50 [6]: 12.7 µM
TGI [6]: 25.9 µM
GI50 [7]: 1.85 µM
TGI [7]: 7.81 µM
GI50 [8]: 3.07 µM
TGI [8]: 15.2 µM
GI50 [9]: 2.6 µM
TGI [9]: 11.9 µM
GI50 [10]: 6.37 µM
TGI [10]: 19.6 µM
GI50 [11]: 5.1 µM
TGI [11]: 19.5 µM
GI50 [12]: 11.4 µM
TGI [12]: 25.7 µM
GI50 [13]: 3.56 µM
TGI [13]: 17.1 µM
GI50 [14]: 5.52 µM
TGI [14]: 19.3 µM
GI50 [15]: 6.23 µM
TGI [15]: 36.8 µM
GI50 [16]: 11.1 µM
TGI [16]: 26.7 µM
GI50 [17]: 3.23 µM
TGI [17]: 11.1 µM
GI50 [18]: 4.18 µM
TGI [18]: 17.3 µM
GI50 [19]: 4.7 µM
TGI [19]: 17 µM
GI50 [20]: 3.65 µM
TGI [20]: 12.9 µM
GI50 [21]: 6.92 µM
TGI [21]: 24.1 µM
GI50 [22]: 5.38 µM
TGI [22]: 19.4 µM
GI50 [23]: 6.21 µM
TGI [23]: 29.5 µM
GI50 [24]: 14.3 µM
TGI [24]: > 100 µM
GI50 [25]: 6.44 µM
TGI [25]: 21.8 µM
GI50 [26]: 4.42 µM
TGI [26]: 17.9 µM
GI50 [27]: 5.58 µM
TGI [27]: 19.8 µM
GI50 [28]: 2.69 µM
TGI [28]: 13.2 µM
GI50 [29]: 10.7 µM
TGI [29]: 27.3 µM
GI50 [30]: 30.6 µM
TGI [30]: > 100 µM
GI50 [31]: 11.2 µM
TGI [31]: 25.3 µM
GI50 [32]: 4.32 µM
TGI [32]: 18.5 µM
GI50 [33]: 3.97 µM
TGI [33]: 17.3 µM
GI50 [34]: 6.04 µM
TGI [34]: 21.4 µM
GI50 [35]: 10.1 µM
TGI [35]: 22.6 µM
GI50 [36]: 10.6 µM
TGI [36]: 25.4 µM
GI50 [37]: 1.66 µM
TGI [37]: 9.51 µM
GI50 [38]: 3.18 µM
TGI [38]: 12.7 µM
GI50 [39]: 2.76 µM
TGI [39]: 12.9 µM
GI50 [40]: 2.2 µM
TGI [40]: 14.7 µM
GI50 [41]: 10.9 µM
TGI [41]: 23.6 µM
GI50 [42]: 6.03 µM
TGI [42]: 21.1 µM
GI50 [43]: 10.1 µM
TGI [43]: 24.5 µM
GI50 [44]: 3.77 µM
TGI [44]: 19.1 µM
GI50 [45]: 14.8 µM
TGI [45]: 29.2 µM
GI50 [46]: 4.66 µM
TGI [46]: 17.8 µM
GI50 [47]: 2.37 µM
TGI [47]: 13 µM
GI50 [48]: 3.95 µM
TGI [48]: 14.6 µM
GI50 [49]: 1.21 µM
TGI [49]: 6.49 µM
GI50 [50]: 10.2 µM
TGI [50]: 62.5 µM
GI50 [51]: 3.21 µM
TGI [51]: 15.1 µM
GI50 [52]: 8.35 µM
TGI [52]: 21.3 µM
GI50 [53]: 10.2 µM
TGI [53]: 23.5 µM
GI50 [54]: 3.36 µM
TGI [54]: 13.1 µM
GI50 [55]: 4.7 µM
TGI [55]: 24.4 µM
GI50 [56]: 10.3 µM
TGI [56]: 27.3 µM
